For test [1], the target named is T1, Orai1/STIM1 (Homo sapiens, UniProt Q96D31).
T1 construct: expressed in transfected cells; host or cells: HEK-293
The test is described as follows: Fluorescence-based assay of store-operated calcium entry in Orai1/STIM1 stable cells. The class given is cell-based. To be noted: HEK-293 cells stably expressing human STIM1 and Orai1, Peak-Basal signal, read-out: Orail/STIM1 (IC50, μmol). The text has this: Fluorescence-based assays are used for screening the compounds described herein, such as compounds of Formulas (I), (II), (III), (IV) or (V) which modulate intracellular calcium.
A. Fluorescence-Based Assay of Store-Operated Calcium Entry in Orai1/STIM1 Stable Cells.
Cells stably expressing recombinant human STIM1 and Orai1 are generated by transfecting a human Orai1 expression plasmid (pcDNA3.1-Orai1-cmyc) into HEK-293 cells stably overexpressing human STIM1 (Roos et al. 2005 JCB 169(3): 435-445). Colonies of cells stably expressing both STIM1 and Orai1 proteins are selected and then subcloned by limiting dilution. Cells were cultured at 37° C./6% CO2 in complete medium with 10% FBS and appropriate selection markers.
The day prior to performing the assay Orai1/STIM1 stable cells are plated in 50 μL of complete medium at 90-95% confluence in a 384 well plate. Cells are grown at 37° C./6% CO2 overnight. On the day of the assay, 1.5 μM fluo-4-AM (Invitrogen) in complete medium is added to the cells, which are then incubated for 1 hour at RT. Cells are washed once in Ca^2+-free HBSS (Hank's buffered saline solution) and 35 μl of Ca^2+-free HBSS is added to each well. Test compounds are added to wells in a 10 μL Ca^2+-free HBSS solution, prepared at 4.5× the desired final concentration, and incubated for 30 minutes at RT. The initial baseline fluorescence signal is then measured with a FLIPR^384 (Molecular Devices) plate reader. Calcium entry is initiated by adding 5 μl of 10×CaCl2 (10 mM) in HBSS, and changes in cellular fluorescence are measured with the FLIPR^384 plate reader. In each well, the magnitude of the fluorescence signal as a result of calcium entry into the cell is determined by calculating the difference between the peak fluorescence signal measured after calcium addition and the initial baseline fluorescence signal (designated Peak-Basal). IC50 values are typically calculated as the concentration that inhibited 50% of the Peak-Basal signal.

Test [2] concerns RBL-2H3 cells. Briefly: Fluorescence-based assay of store-operated calcium entry in RBL-2H3 cells. Conditions: Rattus norvegicus, thapsigargin, Upslope, read-out: RBL-2H3 (IC50, μmol). The class given is cell-based. As for the experimental part: B. Fluorescence-Based Assay of Store-Operated Calcium Entry in RBL-2H3 Cells.
RBL-2H3 cells are obtained from ATCC and maintained in complete medium with 10% FBS at 37° C./6% CO2.
The day prior to performing the assay, RBL-2H3 cells are plated in 50 μl of complete medium in a 384 well plate. Cells are grown at 37° C./6% CO2 overnight and grow to 50-60% confluence by the next day. On the assay day, 1.5 μM Fluo-4-AM dye (Invitrogen) in complete medium is added and incubated for 1 hour at RT. Cells are washed twice in Ca^2+-free HBSS buffer and 35 μL Ca^2+-free HBSS buffer is added to each well. 10 μL of a test compound prepared in a Ca^2+-free HBSS solution at 4.5× of the desired concentration is added to a well and incubated for 5 minutes at RT. 10 μL of thapsigargin prepared in a Ca^2+-free HBSS solution at 5.5× of the desired concentration (5.5 uM) is added to each well and incubated for an additional 25 minutes. The initial baseline fluorescence signal is measured with a FLIPR^384 (Molecular Devices) plate reader. 5 μL of 12× calcium in HBSS (12 mM) is added and changes in cellular fluorescence are measured with the FLIPR^384 plate reader. In each well, the change in the fluorescent signal as a function of time due to calcium entry into the cell is determined by calculating the difference between the fluorescent signal measured 7 seconds after calcium addition and the initial baseline fluorescence signal at time zero (t=0). This parameter is designated Upslope. The IC50 value is calculated as the concentration at which 50% of the Upslope is inhibited.

Molecules are shown by their SMILES. Like-named read-outs stand apart in the source and are kept apart here.

T1 sequence (Q96D31 whole entry): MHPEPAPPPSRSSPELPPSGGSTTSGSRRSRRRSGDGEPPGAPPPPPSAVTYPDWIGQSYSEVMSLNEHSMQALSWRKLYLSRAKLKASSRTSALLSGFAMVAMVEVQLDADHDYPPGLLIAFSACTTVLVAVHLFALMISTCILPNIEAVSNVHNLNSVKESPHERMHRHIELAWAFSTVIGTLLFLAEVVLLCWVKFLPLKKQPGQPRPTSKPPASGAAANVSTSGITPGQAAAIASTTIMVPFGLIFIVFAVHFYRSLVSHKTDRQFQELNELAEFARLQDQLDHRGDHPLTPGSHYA

Turning to `Cc1oc(C(F)(F)F)nc1-c1ccc(NC(=O)c2c(F)cccc2F)nc1` [Compound 14, 2,6-difluoro-N-(5-(5-methyl-2-(trifluoromethyl)oxazol-4-yl)pyridin-2-yl)benzamide], the IC50 in test [1] (Table III) was less than 0.6 µM.
With `Cn1nc(-c2nccs2)cc1-c1ccc(NC(=O)c2c(F)cccc2F)s1` [Compound 6, (2,6-difluorophenyl)-N-[5-[1-methyl-3-(1,3-thiazol-2-yl)pyrazol-5-yl](2-thienyl)]carboxamide], the IC50 in test [1] (Table IV) was less than 0.6 µM.
Same read-out and setting: for `Cn1nc(-c2ccccn2)cc1-c1ccc(NC(=O)c2c(F)cccc2F)s1` [Compound 28, 2,6-difluoro-N-(5-(1-methyl-3-(pyridin-2-yl)-1H-pyrazol-5-yl)thiophen-2-yl)benzamide] the value was less than 0.6 µM.
`CCc1oc(C(F)(F)F)nc1-c1ccc(NC(=O)c2c(F)cccc2F)nc1` [Compound 25, N-(5-(5-ethyl-2-(trifluoromethyl)oxazol-4-yl)pyridin-2-yl)-2,6-difluorobenzamide]: in test [1] (Table III), the IC50 was less than 0.6 µM.
In the case of `CCc1oc(C(F)(F)F)nc1-c1ccc(NC(=O)c2ccccc2F)nc1` [Compound 24, N-(5-(5-ethyl-2-(trifluoromethyl)oxazol-4-yl)pyridin-2-yl)-2-fluorobenzamide], the IC50 in test [1] (Table III) was less than 0.6 µM.
With `Cn1nc(-c2nccs2)cc1-c1ccc(NC(=O)c2ccc(F)cc2F)s1` [Compound 7, (2,4-difluorophenyl)-N-[5-[1-methyl-3-(1,3-thiazol-2-yl)pyrazol-5-yl](2-thienyl)]carboxamide], the IC50 in test [1] (Table IV) was less than 0.6 µM.
Turning to `Cc1cccc(F)c1C(=O)Nc1ccc(-c2nc(C(F)(F)F)oc2C)cn1` [Compound 21], the IC50 in test [2] (Table III) and in test [1] (Table III) was less than 0.6 µM each time.
On to `Cn1nc(-c2ccccc2F)cc1-c1ccc(NC(=O)c2c(F)cccc2F)s1` [Compound 22], for which the IC50 in test [2] (Table IV) and in test [1] (Table IV) was less than 0.6 µM each time.
`Cc1oc(C(F)(F)F)nc1-c1ccc(NC(=O)c2ccccc2F)nc1` [Compound 16]: in test [1] (Table III), the IC50 was less than 0.6 µM.
Take `CCn1nc(-c2nccs2)cc1-c1ccc(NC(=O)c2c(F)cc(F)cc2F)s1` [Compound 16]: in test [1] (Table IV), the IC50 fell in the range of 0.6 to 1.2 µM.
Same read-out and setting: under `Cn1nc(-c2nccs2)cc1-c1ccc(NC(=O)c2c(F)cc(F)cc2F)s1` [Compound 10, (2,4,6-trifluorophenyl)-N-[5-[1-methyl-3-(1,3-thiazol-2-yl)pyrazol-5-yl](2-thienyl)]carboxamide] stands less than 0.6 µM.
For the compound `Cc1oc(C(F)(F)F)nc1-c1ccc(NC(=O)c2cccc(F)c2C)nc1` [Compound 19, 3-fluoro-2-methyl-N-(5-(5-methyl-2-(trifluoromethyl)oxazol-4-yl)pyridin-2-yl)benzamide], the IC50 in test [1] (Table III) is less than 0.6 µM.
For the compound `Cn1nc(-c2ccccc2F)cc1-c1ccc(NC(=O)c2c(F)cc(F)cc2F)s1` [Compound 20], the IC50 in test [2] (Table IV) and in test [1] (Table IV) was less than 0.6 µM throughout.
As to `Cc1oc(C(F)(F)F)nc1-c1ccc(NC(=O)c2c(F)cncc2F)nc1` [Compound 17, 3,5-difluoro-N-(5-(5-methyl-2-(trifluoromethyl)oxazol-4-yl)pyridin-2-yl)isonicotinamide], in test [1] (Table III), the IC50 was less than 0.6 µM.
On the same count and under the same terms, under `Cc1ccccc1C(=O)Nc1ccc(-c2nc(C(F)(F)F)oc2C)cn1` [Compound 15] stands less than 0.6 µM.
In the case of `Cn1nc(-c2ccccc2F)cc1-c1ccc(NC(=O)c2c(F)ccc(F)c2F)s1` [Compound 21], the IC50 in test [2] (Table IV) and in test [1] (Table IV) was 0.6 to 1.2 µM throughout.
Take `CCn1nc(-c2nccs2)cc1-c1ccc(NC(=O)c2c(F)cccc2F)s1` [Compound 15]: the IC50 in test [1] (Table IV) fell in the range of 0.6 to 1.2 µM.
In the case of `Cn1nc(-c2ccccn2)cc1-c1ccc(NC(=O)c2c(F)cc(F)cc2F)s1` [Compound 27, 2,4,6-trifluoro-N-(5-(1-methyl-3-(pyridin-2-yl)-1H-pyrazol-5-yl)thiophen-2-yl)benzamide], in test [1] (Table IV), the IC50 fell in the range of 0.6 to 1.2 µM.
